The results in this text go back to ChEMBL document CHEMBL5465560, “Selectivity Literature for EUbOPEN Chemogenomic Library” (2024).

The target in assay [1] is Mitogen-activated protein kinase 8 (Homo sapiens, UniProt P45983). The assay can be described thus: Selectivity interaction (LanthaScreen Eu Kinase Binding Assay) EUB0001632a MAPK8. As to conditions: at 10 µM. On the technique in general: Time-resolved FRET reads energy transfer from a long-lived donor to a nearby acceptor.
In assay [2] the target is T1, Mitogen-activated protein kinase 13 (Homo sapiens) (UniProt O15264).
T1 sequence (whole entry): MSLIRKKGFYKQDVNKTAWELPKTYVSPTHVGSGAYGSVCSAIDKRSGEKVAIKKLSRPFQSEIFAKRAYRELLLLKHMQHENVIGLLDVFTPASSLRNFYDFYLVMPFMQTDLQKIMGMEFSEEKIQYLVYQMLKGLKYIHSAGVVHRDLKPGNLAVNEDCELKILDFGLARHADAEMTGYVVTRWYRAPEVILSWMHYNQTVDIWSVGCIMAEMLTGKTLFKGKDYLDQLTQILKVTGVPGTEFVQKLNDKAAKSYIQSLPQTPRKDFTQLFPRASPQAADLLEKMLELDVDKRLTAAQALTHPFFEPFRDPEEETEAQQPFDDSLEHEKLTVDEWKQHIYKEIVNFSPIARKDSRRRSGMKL
The assay can be described thus: Selectivity interaction (KinomeScan (DiscoverX)) EUB0000595a MAPK13. As to conditions: at 10 µM.

The target in assay [3] is ALK tyrosine kinase receptor (Homo sapiens, UniProt Q9UM73). The experiment in a line: Selectivity interaction (KinomeScan (DiscoverX)) EUB0001619a ALK. As to conditions: at 1 µM.
Assay [4] addresses Proto-oncogene tyrosine-protein kinase ROS (Homo sapiens) (UniProt P08922). The assay can be described thus: Selectivity interaction (SelectScreen profiling (Invitrogen)) EUB0000607a ROS1. As to conditions: at 2 µM.
The target in assay [5] is T2, Serine/threonine-protein kinase DCLK1 (Homo sapiens) (UniProt O15075).
T2 sequence (whole entry): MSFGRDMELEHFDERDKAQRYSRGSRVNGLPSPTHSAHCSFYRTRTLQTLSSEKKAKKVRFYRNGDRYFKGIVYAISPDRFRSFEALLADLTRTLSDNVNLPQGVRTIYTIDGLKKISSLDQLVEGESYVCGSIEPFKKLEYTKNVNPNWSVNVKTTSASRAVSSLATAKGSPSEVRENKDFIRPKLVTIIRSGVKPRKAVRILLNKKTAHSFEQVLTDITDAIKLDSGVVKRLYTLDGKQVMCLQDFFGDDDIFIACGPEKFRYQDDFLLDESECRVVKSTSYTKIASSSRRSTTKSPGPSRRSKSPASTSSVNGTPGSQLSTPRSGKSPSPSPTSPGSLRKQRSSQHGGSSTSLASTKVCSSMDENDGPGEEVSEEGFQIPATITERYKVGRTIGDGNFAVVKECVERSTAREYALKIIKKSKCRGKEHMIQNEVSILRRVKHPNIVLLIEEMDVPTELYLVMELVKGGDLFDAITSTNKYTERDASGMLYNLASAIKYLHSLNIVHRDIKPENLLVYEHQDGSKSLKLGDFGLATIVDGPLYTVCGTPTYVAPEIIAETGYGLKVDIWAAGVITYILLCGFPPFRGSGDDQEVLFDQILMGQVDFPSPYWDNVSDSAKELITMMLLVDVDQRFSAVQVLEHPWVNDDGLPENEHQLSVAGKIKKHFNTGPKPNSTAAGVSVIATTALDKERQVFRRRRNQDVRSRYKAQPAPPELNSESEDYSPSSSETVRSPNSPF
The assay can be described thus: Selectivity interaction (KinomeScan (DiscoverX)) EUB0001049a DCLK1. As to conditions: at 1 µM.

Assay [6] has as its target Insulin-like growth factor 1 receptor (Homo sapiens, UniProt P08069). The experiment in a line: Selectivity interaction (KinomeScan (DiscoverX)) EUB0001049a IGF1R. As to conditions: at 1 µM.
Assay [7] has as its target T3, Mitogen-activated protein kinase kinase kinase kinase 2 (Homo sapiens) (UniProt Q12851).
T3 sequence (whole entry): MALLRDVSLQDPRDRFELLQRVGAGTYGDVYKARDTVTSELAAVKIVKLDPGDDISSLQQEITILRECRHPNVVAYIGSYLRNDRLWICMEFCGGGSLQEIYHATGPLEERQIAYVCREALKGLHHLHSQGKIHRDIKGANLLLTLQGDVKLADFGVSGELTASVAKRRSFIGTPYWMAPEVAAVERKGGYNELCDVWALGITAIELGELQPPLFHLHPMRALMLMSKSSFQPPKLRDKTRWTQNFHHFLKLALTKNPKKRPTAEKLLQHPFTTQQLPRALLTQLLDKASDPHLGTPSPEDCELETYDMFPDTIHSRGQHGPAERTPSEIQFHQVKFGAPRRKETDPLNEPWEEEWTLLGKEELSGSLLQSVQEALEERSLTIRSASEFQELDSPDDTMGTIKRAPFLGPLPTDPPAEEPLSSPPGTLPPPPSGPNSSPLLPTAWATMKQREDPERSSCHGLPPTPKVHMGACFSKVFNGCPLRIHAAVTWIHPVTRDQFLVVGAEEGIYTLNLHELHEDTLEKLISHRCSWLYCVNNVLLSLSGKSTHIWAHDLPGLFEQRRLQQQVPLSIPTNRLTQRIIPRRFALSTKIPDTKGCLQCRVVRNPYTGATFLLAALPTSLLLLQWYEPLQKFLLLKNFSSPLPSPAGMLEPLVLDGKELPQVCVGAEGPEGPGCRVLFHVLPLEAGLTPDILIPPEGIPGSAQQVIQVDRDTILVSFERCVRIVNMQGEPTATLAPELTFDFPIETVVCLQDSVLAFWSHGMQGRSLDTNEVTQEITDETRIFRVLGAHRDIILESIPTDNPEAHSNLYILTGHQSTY
The assay can be described thus: Selectivity interaction (KinomeScan (DiscoverX)) EUB0001049a MAP4K2. The conditions noted are these: at 1 µM.

In assay [8] the target is Ribosomal protein S6 kinase alpha-5 (Homo sapiens) (UniProt O75582). The experiment in a line: Selectivity interaction (KinomeScan (DiscoverX)) EUB0000877a RPS6KA5. The conditions noted are these: at 10 µM.
The target of assay [9] is T4, Tyrosine-protein kinase TXK (Homo sapiens) (UniProt P42681).
T4 sequence (whole entry): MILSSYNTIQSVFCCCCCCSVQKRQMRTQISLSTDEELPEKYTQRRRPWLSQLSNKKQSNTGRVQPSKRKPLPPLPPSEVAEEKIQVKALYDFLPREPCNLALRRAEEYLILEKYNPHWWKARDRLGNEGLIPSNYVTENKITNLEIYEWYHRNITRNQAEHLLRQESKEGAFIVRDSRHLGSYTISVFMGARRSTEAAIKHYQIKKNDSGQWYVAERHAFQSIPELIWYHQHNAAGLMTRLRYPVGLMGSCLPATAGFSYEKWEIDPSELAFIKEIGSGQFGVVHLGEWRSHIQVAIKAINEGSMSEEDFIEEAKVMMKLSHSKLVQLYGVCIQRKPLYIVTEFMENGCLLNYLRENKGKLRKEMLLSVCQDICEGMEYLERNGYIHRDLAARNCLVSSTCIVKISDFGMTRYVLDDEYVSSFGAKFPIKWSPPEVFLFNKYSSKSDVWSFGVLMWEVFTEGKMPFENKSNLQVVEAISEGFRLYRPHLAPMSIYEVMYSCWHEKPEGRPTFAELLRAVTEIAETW
The assay can be described thus: Selectivity interaction (KinomeScan (DiscoverX)) EUB0000655a TXK. As to conditions: at 10 µM.

Assay [10] deals with Leukocyte tyrosine kinase receptor (Homo sapiens, UniProt P29376). The experiment in a line: Selectivity interaction (KinomeScan (DiscoverX)) EUB0000618a LTK. As to conditions: at 10 µM.
Leukocyte tyrosine kinase receptor, sequence (P29376 whole entry): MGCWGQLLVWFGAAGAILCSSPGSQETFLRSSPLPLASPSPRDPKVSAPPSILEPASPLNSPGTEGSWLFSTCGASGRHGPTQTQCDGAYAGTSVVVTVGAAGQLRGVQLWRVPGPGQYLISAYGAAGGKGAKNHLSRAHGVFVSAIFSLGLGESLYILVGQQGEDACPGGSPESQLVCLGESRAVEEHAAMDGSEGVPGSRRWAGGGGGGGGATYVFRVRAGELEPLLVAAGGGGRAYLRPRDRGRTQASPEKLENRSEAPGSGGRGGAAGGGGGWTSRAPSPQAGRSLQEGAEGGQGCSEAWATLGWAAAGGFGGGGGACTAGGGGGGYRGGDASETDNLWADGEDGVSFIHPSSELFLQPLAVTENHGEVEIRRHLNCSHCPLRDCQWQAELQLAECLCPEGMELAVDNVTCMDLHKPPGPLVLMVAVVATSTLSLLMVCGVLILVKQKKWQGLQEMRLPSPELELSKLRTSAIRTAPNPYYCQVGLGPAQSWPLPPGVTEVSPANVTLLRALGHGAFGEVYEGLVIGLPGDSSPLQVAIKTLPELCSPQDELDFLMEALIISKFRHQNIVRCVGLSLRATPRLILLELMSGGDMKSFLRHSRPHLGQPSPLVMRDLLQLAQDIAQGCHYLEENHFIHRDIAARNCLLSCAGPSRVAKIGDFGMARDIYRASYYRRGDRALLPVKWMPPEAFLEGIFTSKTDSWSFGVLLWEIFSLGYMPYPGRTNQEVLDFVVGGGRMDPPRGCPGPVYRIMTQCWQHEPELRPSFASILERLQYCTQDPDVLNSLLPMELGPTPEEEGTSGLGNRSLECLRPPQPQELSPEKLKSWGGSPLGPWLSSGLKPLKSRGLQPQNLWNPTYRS

Mitogen-activated protein kinase 8, sequence (P45983 whole entry): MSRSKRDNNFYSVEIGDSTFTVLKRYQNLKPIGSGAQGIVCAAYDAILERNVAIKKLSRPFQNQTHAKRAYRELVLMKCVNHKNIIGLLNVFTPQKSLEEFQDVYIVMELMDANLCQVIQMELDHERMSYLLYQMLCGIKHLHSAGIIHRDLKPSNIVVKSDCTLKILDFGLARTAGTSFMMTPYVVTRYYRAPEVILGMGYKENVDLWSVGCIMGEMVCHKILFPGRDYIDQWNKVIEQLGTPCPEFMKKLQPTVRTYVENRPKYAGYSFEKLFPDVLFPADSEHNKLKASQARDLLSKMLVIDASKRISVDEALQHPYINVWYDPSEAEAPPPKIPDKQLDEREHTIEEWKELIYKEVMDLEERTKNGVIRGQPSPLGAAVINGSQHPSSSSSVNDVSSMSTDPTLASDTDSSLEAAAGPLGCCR
Insulin-like growth factor 1 receptor, sequence (P08069 31-736 limits assumed): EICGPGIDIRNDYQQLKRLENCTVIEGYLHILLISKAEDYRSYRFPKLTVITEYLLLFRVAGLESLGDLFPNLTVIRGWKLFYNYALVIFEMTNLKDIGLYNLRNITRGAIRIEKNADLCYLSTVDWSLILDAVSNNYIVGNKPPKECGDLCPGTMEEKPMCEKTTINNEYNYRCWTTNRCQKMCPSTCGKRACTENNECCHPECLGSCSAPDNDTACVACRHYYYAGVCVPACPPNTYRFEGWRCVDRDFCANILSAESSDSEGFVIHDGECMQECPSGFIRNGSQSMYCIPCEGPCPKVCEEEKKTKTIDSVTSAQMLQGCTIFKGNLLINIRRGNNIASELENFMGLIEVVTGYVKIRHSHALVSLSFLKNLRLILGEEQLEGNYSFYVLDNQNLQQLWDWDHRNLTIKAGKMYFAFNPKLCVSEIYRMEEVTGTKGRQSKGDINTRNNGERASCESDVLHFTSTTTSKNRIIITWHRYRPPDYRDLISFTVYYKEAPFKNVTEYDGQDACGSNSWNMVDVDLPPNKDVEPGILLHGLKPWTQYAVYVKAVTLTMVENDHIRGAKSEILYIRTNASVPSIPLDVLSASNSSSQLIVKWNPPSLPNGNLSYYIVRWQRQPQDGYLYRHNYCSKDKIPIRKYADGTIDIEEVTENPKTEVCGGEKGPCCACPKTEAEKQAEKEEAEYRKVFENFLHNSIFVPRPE
Insulin-like growth factor 1 receptor, sequence (P08069 741-1367 limits assumed): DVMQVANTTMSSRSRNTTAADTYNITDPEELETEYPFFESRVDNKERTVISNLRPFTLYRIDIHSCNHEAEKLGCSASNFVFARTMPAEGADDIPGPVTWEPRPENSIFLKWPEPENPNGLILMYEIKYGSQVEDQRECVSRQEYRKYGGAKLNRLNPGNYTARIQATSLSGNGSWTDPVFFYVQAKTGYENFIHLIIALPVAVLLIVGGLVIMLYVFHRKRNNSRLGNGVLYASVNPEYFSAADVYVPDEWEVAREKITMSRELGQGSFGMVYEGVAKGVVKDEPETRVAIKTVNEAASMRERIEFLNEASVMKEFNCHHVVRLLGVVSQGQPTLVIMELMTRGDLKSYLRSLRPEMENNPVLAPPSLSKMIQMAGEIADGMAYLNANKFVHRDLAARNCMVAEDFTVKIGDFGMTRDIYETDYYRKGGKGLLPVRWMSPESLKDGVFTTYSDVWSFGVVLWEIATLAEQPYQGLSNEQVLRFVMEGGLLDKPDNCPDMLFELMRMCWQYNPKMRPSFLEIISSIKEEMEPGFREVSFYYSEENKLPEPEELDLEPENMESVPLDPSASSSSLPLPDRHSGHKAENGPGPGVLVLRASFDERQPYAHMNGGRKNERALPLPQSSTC
ALK tyrosine kinase receptor, sequence (Q9UM73 19-1620 limits assumed): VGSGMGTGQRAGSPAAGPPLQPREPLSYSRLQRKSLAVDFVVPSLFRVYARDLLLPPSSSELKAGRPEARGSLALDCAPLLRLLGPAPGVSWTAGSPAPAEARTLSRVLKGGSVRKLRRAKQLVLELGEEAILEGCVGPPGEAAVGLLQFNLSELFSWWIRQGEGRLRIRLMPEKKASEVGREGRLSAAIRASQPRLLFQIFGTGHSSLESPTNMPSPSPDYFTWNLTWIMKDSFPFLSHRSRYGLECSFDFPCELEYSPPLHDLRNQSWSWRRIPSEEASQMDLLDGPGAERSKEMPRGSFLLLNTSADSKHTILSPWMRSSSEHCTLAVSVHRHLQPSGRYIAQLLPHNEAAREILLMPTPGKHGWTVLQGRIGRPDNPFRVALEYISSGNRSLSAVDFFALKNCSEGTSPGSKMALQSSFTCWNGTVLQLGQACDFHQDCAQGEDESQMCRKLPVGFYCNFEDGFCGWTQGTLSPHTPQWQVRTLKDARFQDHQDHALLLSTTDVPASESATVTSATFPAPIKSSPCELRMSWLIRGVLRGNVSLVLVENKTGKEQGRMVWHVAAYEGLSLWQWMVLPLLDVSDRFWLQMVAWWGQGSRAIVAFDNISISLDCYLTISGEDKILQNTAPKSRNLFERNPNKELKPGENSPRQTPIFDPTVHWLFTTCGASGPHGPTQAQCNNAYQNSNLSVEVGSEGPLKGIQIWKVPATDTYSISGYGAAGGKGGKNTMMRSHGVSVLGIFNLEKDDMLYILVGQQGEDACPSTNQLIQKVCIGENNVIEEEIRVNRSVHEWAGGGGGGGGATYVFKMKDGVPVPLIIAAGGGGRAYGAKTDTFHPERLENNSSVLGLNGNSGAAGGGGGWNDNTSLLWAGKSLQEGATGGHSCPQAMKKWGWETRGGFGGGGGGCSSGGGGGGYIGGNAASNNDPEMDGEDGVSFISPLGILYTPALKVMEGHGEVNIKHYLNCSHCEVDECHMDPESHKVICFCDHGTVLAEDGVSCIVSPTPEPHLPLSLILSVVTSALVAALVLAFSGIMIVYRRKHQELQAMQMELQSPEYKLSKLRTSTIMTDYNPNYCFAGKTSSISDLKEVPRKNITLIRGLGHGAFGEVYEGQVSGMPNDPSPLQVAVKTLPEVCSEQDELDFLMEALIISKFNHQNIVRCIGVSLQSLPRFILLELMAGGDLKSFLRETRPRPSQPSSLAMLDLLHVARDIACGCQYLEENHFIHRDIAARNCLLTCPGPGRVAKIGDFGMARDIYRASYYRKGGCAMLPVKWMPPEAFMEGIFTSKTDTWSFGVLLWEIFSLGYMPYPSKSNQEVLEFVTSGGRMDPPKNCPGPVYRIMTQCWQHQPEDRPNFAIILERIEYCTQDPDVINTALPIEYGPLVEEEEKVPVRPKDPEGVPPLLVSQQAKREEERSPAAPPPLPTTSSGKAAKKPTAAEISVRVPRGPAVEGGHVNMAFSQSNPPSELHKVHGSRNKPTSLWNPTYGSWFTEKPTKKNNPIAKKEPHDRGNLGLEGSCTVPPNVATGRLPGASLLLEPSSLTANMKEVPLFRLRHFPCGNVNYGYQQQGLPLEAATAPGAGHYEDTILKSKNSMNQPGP
Ribosomal protein S6 kinase alpha-5 (Homo sapiens), sequence (O75582 whole entry, looked up): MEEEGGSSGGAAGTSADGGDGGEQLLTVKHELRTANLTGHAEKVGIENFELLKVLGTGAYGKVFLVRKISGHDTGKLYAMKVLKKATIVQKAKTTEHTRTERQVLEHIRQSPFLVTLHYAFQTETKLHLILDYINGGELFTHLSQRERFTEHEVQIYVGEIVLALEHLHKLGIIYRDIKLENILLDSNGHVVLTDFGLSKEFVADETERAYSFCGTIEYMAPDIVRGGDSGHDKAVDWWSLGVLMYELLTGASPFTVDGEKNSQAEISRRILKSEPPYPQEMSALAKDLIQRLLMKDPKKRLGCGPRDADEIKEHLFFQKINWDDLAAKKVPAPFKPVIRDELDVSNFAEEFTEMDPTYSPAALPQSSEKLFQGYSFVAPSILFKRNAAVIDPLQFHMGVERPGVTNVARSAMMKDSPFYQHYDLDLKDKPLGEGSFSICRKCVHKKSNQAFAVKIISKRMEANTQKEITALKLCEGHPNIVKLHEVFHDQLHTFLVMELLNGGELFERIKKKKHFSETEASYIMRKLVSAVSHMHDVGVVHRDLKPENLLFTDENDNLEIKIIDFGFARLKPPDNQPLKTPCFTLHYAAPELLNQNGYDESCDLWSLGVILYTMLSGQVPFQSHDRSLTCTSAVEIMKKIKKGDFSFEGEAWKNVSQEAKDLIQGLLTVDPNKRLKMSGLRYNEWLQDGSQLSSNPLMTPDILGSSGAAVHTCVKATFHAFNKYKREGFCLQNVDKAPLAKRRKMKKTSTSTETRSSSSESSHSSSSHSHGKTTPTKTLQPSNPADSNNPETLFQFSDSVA

Take `Cn1cc(-n2cnc3c(NCc4nc5cc(Cl)c(Cl)cc5[nH]4)nc(N4CCOCC4)nc32)cn1`: in assay [1], the % of inhibition is -32.2%.

As to `COCC(=O)NC/C=C/c1ccc2ncnc(Nc3ccc(Oc4ccc(C)nc4)c(C)c3)c2c1` [CP-724714], the % of control in assay [2] was 100%.

For the molecule `N#Cc1cccc(-c2c[nH]c3ncnc(N4CCOCC4)c23)c1`, the % of control in [3] was determined as 100%.

On to `CNC(=O)Nc1ccc(-c2nc(N3CC4CCC(C3)O4)c3cnn(C4CCC5(CC4)OCCO5)c3n2)cc1`, for which the % of inhibition in assay [4] is 2%.

Take `COc1cc(Nc2nc(C)cc(-c3cnn4nc(OC)ccc34)n2)cc(C(F)(F)F)c1`: the figures for the % of control in [5], in assay [6] and in assay [7] were 69%, 91% and 99%, respectively.

For the molecule `CCC(=O)N1CC[C@H](Nc2ncnc3c2CN(c2cnc(OC)c(C(F)(F)F)c2)CC3)C1` [LENIOLISIB], the % of inhibition in assay [8] turned out to be 76%.

As for `CN(C)CCOc1ccc(-c2nc(-c3ccncc3)c(-c3ccc4c(c3)CC/C4=N\O)[nH]2)cc1`, the % of control in [9] was 97%.

`O[C@H]1CC[C@H](Nc2ncc3nc(Nc4c(F)cc(F)cc4F)n([C@H]4CCOC4)c3n2)CC1` displayed a % of control in [10] of 100%.
